The values that follow are results of earlier work, collected in US12150970B2, “Composition for treatment of topical dermatological bacterial skin conditions” (ALPHYN BIOLOGICS, INC., priority 2021, dated 2024).

This data set deals with cells. The note with it: compounds evaluated by Chen.
For `Oc1cc(O)c2c(c1)O[C@H](c1ccc(O)c(O)c1)[C@@H](O)C2` [Catechin, catechin], the “effect on cell proliferation / healing (in words)” value is given as “little effect”.

As for `Oc1cc(O)c2c(c1)O[C@H](c1cc(O)c(O)c(O)c1)[C@@H](O)C2` [Gallocatechin, gallocatechin], the “effect on cell proliferation / healing (in words)” value was “slightly stimulating to cell proliferation”.

Consider `COc1ccc2c(=O)oc3c(OC)cc(CCN(C)C)c4c(=O)oc1c2c34` [Taspine, taspine], for which the “effect on cell proliferation / healing (in words)” value is given as “little healing effects”.

For the compound `COc1ccc([C@H]2Oc3c(OC)cc(CCCO)cc3[C@@H]2CO)cc1OC` [dimethylcedrusin], the “effect on cell proliferation / healing (in words)” value is “little healing effects”.

On to epicatechin, for which the “effect on cell proliferation / healing (in words)” value is given as “little effect”.

Regarding epigallocatechin, the “effect on cell proliferation / healing (in words)” value was “slightly stimulating to cell proliferation”.
